Columns and labels:
human recombinant renin = target: T1, human recombinant renin (Homo sapiens, UniProt P00797); experiment: Inhibition of human recombinant renin (modified Cayman renin inhibitor screening assay, fluorescence); type: biochemical; conditions: for inhibition at 0.01 µM: read-out: Renin inhibition (percent inhibition of renin activity) at 0.01 μM; for inhibition at 0.1 µM: read-out: Renin inhibition (percent inhibition of renin activity) at 0.1 μM
T1 construct: purchased Cayman 10006270
T1 sequence (P00797 67-406): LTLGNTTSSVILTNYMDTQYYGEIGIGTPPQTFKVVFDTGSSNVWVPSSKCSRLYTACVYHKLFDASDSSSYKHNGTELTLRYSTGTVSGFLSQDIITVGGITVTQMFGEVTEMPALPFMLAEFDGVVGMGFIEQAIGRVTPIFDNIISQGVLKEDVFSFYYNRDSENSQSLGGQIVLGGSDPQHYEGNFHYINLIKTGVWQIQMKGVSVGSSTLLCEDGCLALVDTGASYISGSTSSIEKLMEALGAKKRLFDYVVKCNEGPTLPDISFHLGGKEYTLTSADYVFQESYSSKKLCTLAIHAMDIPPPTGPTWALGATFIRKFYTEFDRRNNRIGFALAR
Description: In-vitro protocol for the Inhibition of human recombinant renin by the compound of invention • Procedure: The enzymatic in vitro assay was performed in 96 well polypropylene plate (Nunc), using a modified Renin inhibitor screening assay protocol (Cayman, cat no: 10006270). The reaction system comprised assay buffer containing 50 mM Tris-HCL, pH=8.0 & 100 mM sodium chloride, human recombinant rennin (1:20 diluted with fixed activity), synthetic renin substrates (Cayman, cat no: 10006906) (14.4 μM) and different concentrations of renin inhibitors in DMSO in a total reaction system of 100 μl. The entire reaction mixture were incubated at 37° C. for 30 mins and the fluorescence was read at excitation wavelengths of 320-360 nm and emission wavelengths of 490-520 nm. Test compounds efficacy was determined by the percent inhibition of renin activity using Aliskiren (Tekturna) as a reference standard.
Following table represents measured IC50 values of the selected compounds for its inhibition of human recombinant renin.

Guinea Pigs = experiment: Anaesthetized Guinea Pig Model (furosemide-treated, blood pressure via carotid artery); type: in vivo; set-up: unit not given beside the values; conditions: intravenous, change from pretreatment
Description: Anaesthetized Guinea Pig Model
Experimental Procedure: Guinea Pigs were Treated with Furosemide in Drinking Water
(5 mg/kg/day) for four days and intramuscular injection (10 mg/kg) at 18 and 3 hr before experiment. There after they were anaesthetized by using intramuscular injection of xylazine and ketamine (7:70 mg/kg mixture). The left or right jugular vein was exposed and cannulated for intravenous administration of the NCEs. The to left or right carotid artery was exposed and cannulated for recording blood pressure using Biopac system. 0 (vehicle control), 3 and 10 mg of NCEs were administered and change in blood pressure from pretreatment was measured.

[1] = 0.01 μM compound, 37° C., 30 mins, human recombinant renin
[2] = 0.1 μM compound, 37° C., 30 mins, human recombinant renin

Compound: O=C(NC1CCNCC1C(=O)N(Cc1cccc(Cl)c1Cl)C1CC1)c1ccc(OCCOc2c(Cl)cccc2Cl)cc1 (stereo not shown) [Example 1, N-cyclopropyl-N-(2,3-dichlorobenzyl)-4-(4-(2-(2,6-dichlorophenoxy)ethoxy)benzamido) piperidine-3-carboxamide]
- IC50 (human recombinant renin): 16 nM
- inhibition at 0.01 µM (human recombinant renin; [1]): 88%
- inhibition at 0.1 µM (human recombinant renin; [2]): 100%
- melting point: 66 to 68 °C
- Reduction in M.A.B.P (Guinea Pigs; 3 mg): 18
- Reduction in M.A.B.P (Guinea Pigs; 10 mg): 30

Compound: Cc1cc(Cl)c(OCCOc2ccc(C(=O)N[C@H]3CCNCC3C(=O)N(Cc3cccc(C)c3C)C3CC3)cc2)c(Cl)c1 (stereo partly drawn) [Example 26, (4S)—N-Cyclopropyl-4-(4-(2-(2,6-dichloro-4-methylphenoxy)ethoxy)benzamido)-N-(2,3-dimethylbenzyl)piperidine-3-carboxamide]
- IC50 (human recombinant renin): 21 nM
- Renin inhibition (percent inhibition of renin activity) at 0.01 μM (human recombinant renin; [1]): 67%
- Renin inhibition (percent inhibition of renin activity) at 0.1 μM (human recombinant renin; [2]): 97%
- Reduction in M.A.B.P (Guinea Pigs; 3 mg): 14
- Reduction in M.A.B.P (Guinea Pigs; 10 mg): 28

Compound: COc1ccccc1CN(C(=O)C1CNCC[C@@H]1NC(=O)c1ccc(OCCOc2c(Cl)cc(C)cc2Cl)cc1)C1CC1.Cl (stereo partly drawn) [Example 31, (4S)—N-Cyclopropyl-4-(4-(2-(2,6-dichloro-4-methylphenoxy)ethoxy)benzamido)-N-(2-methoxybenzyl)piperidine-3-carboxamide hydrochloride]
- IC50 (human recombinant renin): 37 nM
- inhibition at 0.01 µM (human recombinant renin; [1]): 22%
- inhibition at 0.1 µM (human recombinant renin; [2]): 91%
- Reduction in M.A.B.P (Guinea Pigs; 3 mg): 8
- Reduction in M.A.B.P (Guinea Pigs; 10 mg): 28
